This note sets out measurements from PMC5007466, “VCP recruitment to mitochondria causes mitophagy impairment and neurodegeneration in models of Huntington's disease” (Nature Communications, 2016).

Data set [1] concerns HdhQ111 striatal cells and striata of HD R6/2 and YAC128 mice. As to the kind of experiment: VCP total protein level, HD cells and HD mouse striata (western blot). The note with it: HV-3 treatment, HD cell cultures and HD animal brains. Here is the method: Protein concentrations were determined by Bradford assay. Protein was resuspended in Laemmli buffer, loaded on SDS–PAGE, and transferred onto nitrocellulose membranes. Membranes were probed with the indicated antibodies, followed by visualization with ECL. Representative blots have been cropped for presentation. Images of full-size blots are presented in Supplementary Fig. 9. […]
green). Lower: the enlarged area is labeled in green. (f) The sequence in VCP corresponding to HV-3 in Htt was deleted (Δ VCP). GST, GST-VCP, or GST-ΔVCP was incubated with total lysates of mouse brain for 16 hours followed by Western blot with anti -Htt antibodies. The representative blots are from three independent experiments.
Supplementary Figure 5: Treatment of peptide inhibitor HV-3 in HD animal models. (a) HD R6/2 mice and wildtype littermates were treated with either a control peptide or peptide HV-3 (3 mg/kg/day, subcutaneous administration with an Alzet osmotic pump) from 5 to 13 weeks of age. The pump was replaced every four weeks. […] Mouse behaviors and HD -associated pathology were determined […] after beginning treatment. […]
(b) To t a l protein lysates were extracted from HdhQ111 striatal cells and the striata of HD R6/2 and YAC128 mice. VCP protein levels were determined by Western blot analysis. […]

For data set [2], the system named is HD patient-iPS cell derived neurons. As to the kind of experiment: Neurite length of DARPP-32/Tuj1-positive medium spiny neurons. The class given is cell-based, human. Conditions: DARPP-32/Tuj1-positive neurons, 1 μM per day for 5 days versus TAT. Here is the method:
(§1) iPS cells from a normal subject and a HD patient (carrying 41 CAG repeats) were differentiated into neurons using the protocol from our previous studies. Briefly, iPS cells were plated onto 6-well plates precoated with 2.5% Matrigel and allowed to reach 90% confluence in feeder-free medium. For the first 10 days, cells were treated with SB431542 (10 μM; Tocris Bioscience) and Noggin (100 ng/ml) in Neural Media (NM) containing Neurobasal and DMEM (1:1), B27 supplement minus vitamin A (50 × , Invitrogen), N2 supplement (100 × , Invitrogen), GlutaMax (Invitrogen, 100 × ), FGF2 ([…]) and EGF ([…]), 100 units per ml penicillin and 100 μg ml^−1 streptomycin). For the next 10 days, cells were treated with human recombinant Sonic hedgehog (SHH, 200 ng/ml), DKK1 (100 ng/ml) and BDNF (20 ng/ml) and 10 μM Y27632 (Sigma) in neuronal differentiation medium containing Neurobasal and DMEM (1:3), B27, N2, GlutaMax and PS. […]
In patient-iPS cell-derived neurons, to ensure the observation of mitochondria in the medium spiny neurons, the cells were stained with a mitochondrial marker (anti-TOM20, 1:500) and markers for medium spiny neurons (DARPP-32, 1:200, Epitomics). The quantitation of neurite length was conducted only in the neurons immunopositive for both DARPP-32 and Tuj1 (neuron-specific class III beta-tubulin, 1:5,000, Covance). At least 50 neurons/group were counted.

Data set [3] has the same test system. As to the kind of experiment: Lysosomal activity (Lyso-ID Red). The class given is cell-based, human. The note with it: 1 μM per day for 5 days. The procedure:
as §1, with “streptomycin).” for “streptomycin). For the next 10 days, cells were treated with human recombinant Sonic hedgehog (SHH, 200 ng/ml), DKK1 (100 ng/ml) and BDNF (20 ng/ml) and 10 μM Y27632 (Sigma) in neuronal differentiation medium containing Neurobasal and DMEM (1:3), B27, N2, GlutaMax and PS.”
To determine mitochondrial mass in cultures, cells were stained with antibodies against Tom20 or stained with Mitotracker green. The fluorescent density of Tom20 (1:500) or mitotracker green was quantitated using NIH Image J software. […] The images were visualized by microscope and quantitation of the density of red fluorescence was carried out using NIH ImageJ software. For immunocytochemistry study, at least 100 cells per group were counted and quantitated by an observer blind to experimental conditions.

For a further data set, the system named is C57Black mice. As to the kind of experiment: Blood biochemistry of naive mice. It is filed as in vivo, mouse. Conditions: 3 mg/kg/day, 4 weeks. The procedure: Supplementary Figure 8 : Toxicity analysis of HV -3in naïve mice .
We performed a toxicity analysis of HV-3 in mice. Six -week-old C57Black mice were treated with saline or peptide HV-3 at 3mg/kg/day by Alzet pump implantation. After 4- week treatment, the plasma, blood and whole mouse bodies of mice were collected. Examination on blood chemistry (Supplementary Table 1), hematology (Supplementary Table 2) and general necropsy of mice were performed at the Animal Diagnostic Laboratory at Stanford University. The experimenter who conducted the analysis was blind to the treatment groups. Automated hematology was performed on the Sysmex XT-2000iV analyzer system. Blood smears were made for all full CBC samples and reviewed by a medical technologist. Manual differentials were performed as indicated by species and automated analysis. Chemistry analysis was performed on the Siemens Dimension Xpand analyzer. […]
Student’s t test. Four-week sustained treatment with HV-3 by pump implantation had no effects on blood chemistry (Supplementary Table 1), hematology (Supplementary Table 2), and gross necropsy of naïve mice when compared to mice treated with saline. A four-week treatment with HV-3 had […] on immuno-density of CD3, a marker of T-cell for adaptive immune response, in the brains and spleens of naïve mice (a). Treatment with HV-3 had no effects on the size and weight of the spleens (b). […]
Table 1: Effects of 4-w eek treatment w ith HV-3 on blood biochemistry of naïve mice […]
M ean SD M ean SD p-value unit n

For the compound `CSCC[C@H](NC(=O)[C@@H](NC(=O)[C@H](CC(C)C)NC(=O)[C@@H](NC(=O)[C@H](Cc1c[nH]cn1)NC(=O)CCCCCNC(=O)[C@H](CCCNC(=N)N)NC(=O)[C@H](CCCNC(=N)N)NC(=O)[C@H](CCCNC(=N)N)NC(=O)[C@H](CCC(N)=O)NC(=O)[C@H](CCCNC(=N)N)NC(=O)[C@H](CCCNC(=N)N)NC(=O)[C@H](CCCCN)NC(=O)[C@H](CCCCN)NC(=O)[C@H](CCCNC(=N)N)NC(=O)CNC(=O)[C@@H](N)Cc1ccc(O)cc1)C(C)C)C(C)C)C(=O)N[C@@H](CS)C(=O)N[C@@H](C)C(=O)N[C@H](C(N)=O)[C@@H](C)O` [HV-3], the “VCP total protein levels” value in data set [1] is recorded as “no effects on VCP total protein levels”. In addition, the neurite shortening result in data set [2] is “reduced neurite shortening”. Also, the lysosome hyperactivity entry in data set [3] is on record as “corrected these aberrant events”. Besides, in the data set with C57Black mice (mean, n = 4/group), the ALT was determined as 71.00 U/L, the AST came to 237.25 U/L, the Albumin worked out at 2.95 g/dL and the “Alkaline Phosphatase” value is 108.00 IU/L. In the data set with C57Black mice (mean, n = 4/group), the “Anion Gap” value was determined as 33.08 mmol/L, the BUN amounted to 27.50 mg/dL, the “Carbon Dioxide” value is 16.45 mmol/L and the Chloride is 109.00 mmol/L. For the same compound, in the data set with C57Black mice (mean, n = 4/group), the Creatinine amounted to 0.40 mg/dL, the Globulin came to 2.20, the Glucose came to 312.25 mg/dL and the “Na/K Ratio” value amounted to 20.96. In addition, in the data set with C57Black mice (mean, n = 4/group), the Phosphorus was 8.45 mg/dL, the Potassium is recorded as 7.28 mmol/L, the Sodium is on record as 151.25 mmol/L and the T.Protein is given as 5.15 g/dL. In addition, the “Total Bilirubin” value in the data set on C57Black mice (mean, n = 4/group) amounted to 0.13 mg/dL. Moreover, the Calcium with C57Black mice (mean, n = 4/group, p 0.04 versus saline) was 9.78 mg/dL. In addition, the “blood chemistry (overall)” value with C57Black mice (versus saline) is recorded as “no effects”.
